# Results reported in paper PMC10222464, “Pharmacokinetic Study and Metabolite Identification of CAM106 in Rats by Validated UHPLC-MS/MS” (Pharmaceuticals, 2023).
# “Also recorded” adds a separate entry of the source. Where two headings read alike, the source gives them in different places.
# Tests used:
# influenza virus B [1] = assay: Anti-influenza activity (IC50) against influenza virus B; format: cell-based; conditions: CAM106 versus rupestonic acid
# rats = assay: Observation of toxicity / adverse reactions in rats after dosing; format: in vivo, Sprague Dawley (SD) rats
# influenza virus B [2] = conditions: cited from earlier work
# H1N1 = system: H1N1; design: method as in PMID 22625417; conditions: read-out: IC50 for H1N1 virus; cited from earlier work
# H3N2 = system: H3N2; design: method as in PMID 22625417; conditions: read-out: IC50 for H3N2 virus; cited from earlier work
# [3] = Metabolite identification in rat plasma, urine and feces by high-resolution mass spectrometry; conditions: √ found, × not found
# [4] = Stability of CAM106 QC samples (rat plasma, stock solution) under different conditions; format: physicochemical; conditions: for Accuracy, autosampler stability 0 h / Accuracy, autosampler stability 4 h / Accuracy, autosampler stability 8 h / Accuracy, autosampler stability 12 h: autosampler 10 °C; for Accuracy, room temperature: room temperature 12 h; for Accuracy, stock solution 15 days: stock solution 15 days at −20 °C; for Accuracy, thaw: three freeze–thaw cycles; for Accuracy, long-term stability 1 day / Accuracy, long-term stability 7 days: −80 °C
# Method: Three quality control (QC) concentrations of CAM106 were used for stability testing under five conditions: in the autosampler for 0, 4, 8, and 12 h; long-term stability at −80 °C for 1 and 7 days; stock solution for 15 days at −20 °C; at room temperature for 12 h; and three freeze–thaw cycles.
# The stability tests were conducted with rat plasma containing CAM106 through the analysis of 3 replicates at 10.64, 106.38, and 638.30 ng/mL. This typically comprises short-term stability (room temperature), long-term stability (−80 °C), post-preparation stability (autosampler, 10 °C), and freeze–thaw cycle stability (room temper and −80 °C).
# Kun Ming mice = system: Kun Ming mice; design: method as in earlier work; conditions: 25 mg/kg; cited from earlier work
# [5] = Pharmacokinetic study in rats after oral and intravenous administration (UHPLC-MS/MS, non-compartment analysis); format: in vivo, Sprague Dawley (SD) rats; conditions: for MRT inf: read-out: MRT0–inf; for MRT last: read-out: MRT0–t
# Method: By using the UHPLC–MS/MS method, we successfully performed accurate quantification of CAM106 in rat plasma, and a non-compartment analysis was used to characterize the pharmacokinetic profiles of CAM106. […] After intravenous administration, T1/2 and Vd were 1.34 ± 0.64 h and 16624.89 ± 8171.11 mL/kg, respectively. […] The mean retention times after oral and intravenous administration were 3.42 ± 0.73 h and 0.63 ± 0.17 h, respectively.
# All twelve male Sprague Dawley (SD) rats (weight 200 ± 20 g) were purchased from Xinjiang Medical University (Xinjiang, China). […] For the pharmacokinetic study, twelve rats were randomized into two groups (n = 6). The rats were fasted overnight before the experiment but had free access to water. […] For the oral administration group, CAM106 was intragastrically administered to the rats at a dose of 180 mg/kg. Approximately 0.2 mL of blood was drawn from the ophthalmic veins at 0, 0.25, 0.5, 0.75, 1, 1.5, 2, 4, and 10 h. For intravenous administration, CAM106 was injected into the tail at a dose of 18 mg/kg. About 0.2 mL of blood (from the ophthalmic veins) was drawn at 0, 0.25, 0.5, 0.75, 1, 1.5, 2, 4, and 6 h. After that, 1.5 mL polyethylene tubes containing EDTA were used to collect the plasma. The blood samples were centrifuged at 19,800× g for 7 min after which the supernatant was collected and stored at −80 °C for further analysis.
# A 10 µL volume of methanol was added to 100 µL of each plasma sample and vortexed for 3 s (3000 rpm). Then, the mixtures were vortexed for three seconds while receiving 10 µL of internal standard (3000 rpm). A volume of 350 µL acetonitrile was added to 100 µL of each plasma sample. The mixtures were vortexed for 1 min and centrifuged for 7 min at 19800 g. A 100 µL aliquot of the supernatant was stored and 5 µL was subjected to UHPLC–MS/MS analysis.
# For the pharmacokinetic study, the chromatographic separation was carried out on an Acquity UHPLC BEH C18 column (2.1 × 75 mm, 1.7 µm) with a filter. The column oven was set at 35 °C. The mobile phase aqueous solution (A, containing 0.1% formic acid) and acetonitrile (B) worked within 0–3.5 min with 60% B. The injection volume was set at 5 µL, with a flow rate of 0.2 mL/min. By using the parallel reaction monitoring (PRM) mode, the CAM106 and internal standard were found. The following adjustments were made to the electrospray ionization (ESI) source parameters: high collision dissociation cell (HCD) energy, 27 eV (for CAM106) and 42 eV (for the IS); capillary temperature, 320 °C; S-lens RF level, 55 V; automatic gain control (AGC) target, 1e^6; maximum IT, 100 ms; spray voltage, 3.2 kV.
# Water solubility = format: physicochemical
# [6] = in vivo
# [7] = IV 18.0 mg/kg, n = 6, mean ± SD
# [8] = PO 180.0 mg/kg, n = 6, mean ± SD
# [9] = male, Sprague Dawley, rat, plasma, IV 18.0 mg/kg, n = 6, mean ± SD
# [10] = male, Sprague Dawley, rat, plasma, PO 180.0 mg/kg, n = 6, mean ± SD
smiles,measurement,setting,value
C=C(C(=O)NCc1cc(-c2ccc(F)cc2)no1)C1CCC(C)C2CC(=O)C(C)=C2C1 (stereo not drawn) [CAM106],IC50 against influenza virus B relative to rupestonic acid,influenza virus B [1],about 35 fold
same,Signs of toxicity,rats; 180 mg/kg oral and 18 mg/kg intravenous for 3 days,no signs of toxicity were observed
same,Adverse reactions or acute toxicity,rats; oral 180 mg/kg or intravenous 18 mg/kg,No adverse reactions or acute toxicity were observed
same,IC50,influenza virus B [2]; read-out: IC50 for B virus,3250 nM
same,IC50,H1N1,970 nM
same,IC50,H3N2,1090 nM
same,Detected in rat feces (F),[3]; rat feces 0–48 h after administration of CAM106,√
same,Detected in rat urine (U),[3]; rat urine 0–48 h after administration of CAM106,√
same,"Accuracy, autosampler stability 0 h",[4]; 10.64 ng/mL,95.02
same,"Accuracy, autosampler stability 4 h",[4]; 10.64 ng/mL,93.52
same,"Accuracy, autosampler stability 8 h",[4]; 10.64 ng/mL,91.35
same,"Accuracy, autosampler stability 12 h",[4]; 10.64 ng/mL,100.38
same,"Accuracy, room temperature",[4]; 10.64 ng/mL,96.71
same,"Accuracy, stock solution 15 days",[4]; 10.64 ng/mL,91.26
same,"Accuracy, thaw",[4]; 10.64 ng/mL,97.21
same,"Accuracy, long-term stability 1 day",[4]; 10.64 ng/mL,97.93
same,"Accuracy, long-term stability 7 days",[4]; 10.64 ng/mL,103.20
same,"Accuracy, autosampler stability 0 h",[4]; 106.38 ng/mL,106.05
same,"Accuracy, autosampler stability 4 h",[4]; 106.38 ng/mL,101.96
same,"Accuracy, autosampler stability 8 h",[4]; 106.38 ng/mL,101.46
same,"Accuracy, autosampler stability 12 h",[4]; 106.38 ng/mL,98.88
same,"Accuracy, room temperature",[4]; 106.38 ng/mL,101.12
same,"Accuracy, stock solution 15 days",[4]; 106.38 ng/mL,108.39
same,"Accuracy, thaw",[4]; 106.38 ng/mL,106.13
same,"Accuracy, long-term stability 1 day",[4]; 106.38 ng/mL,104.02
same,"Accuracy, long-term stability 7 days",[4]; 106.38 ng/mL,94.03
same,"Accuracy, autosampler stability 0 h",[4]; 638.30 ng/mL,100.00
same,"Accuracy, autosampler stability 4 h",[4]; 638.30 ng/mL,102.58
same,"Accuracy, autosampler stability 8 h",[4]; 638.30 ng/mL,97.09
same,"Accuracy, autosampler stability 12 h",[4]; 638.30 ng/mL,96.48
same,"Accuracy, room temperature",[4]; 638.30 ng/mL,102.21
same,"Accuracy, stock solution 15 days",[4]; 638.30 ng/mL,95.27
same,"Accuracy, thaw",[4]; 638.30 ng/mL,100.09
same,"Accuracy, long-term stability 1 day",[4]; 638.30 ng/mL,103.73
same,"Accuracy, long-term stability 7 days",[4]; 638.30 ng/mL,90.36
same,Toxic response,Kun Ming mice,no toxic response
same,AUC0–inf,[5]; [7],1287.93 ± 549.25 h·(ng/mL)
same,AUC0–t,[5]; [7],1255.32 ± 544.72 h·(ng/mL)
same,AUC0–inf,[5]; [8],294.19 ± 221.69 h·(ng/mL)
same,AUC0–t,[5]; [8],200.94 ± 87.45 h·(ng/mL)
same,Vd,[5]; [8],"4,605,807.05 ± 2,044,928.13 mL/kg"
same,clearance,[5]; [9],277 mL/min/kg
same,half-life,[5]; [9],1.34 ± 0.64 h
same,MRT inf,[5]; [9],0.79 ± 0.23 h
same,MRT last,[5]; [9],0.63 ± 0.17 h
same,Vd,"[5]; male, Sprague Dawley, rat, plasma, IV 18.0 mg/kg, n = 6, mean ± SD, read-out: Vd",27.4 L/kg
same,Cmax,[5]; [10],61 ± 30.8 ng/mL
same,Tmax,[5]; [10],1.21 ± 0.51 h
same,half-life,[5]; [10],4.56 ± 2.31 h
same,MRT inf,[5]; [10],6.69 ± 3.57 h
same,MRT last,[5]; [10],3.42 ± 0.73 h
same,bioavailability,"[5]; male, Sprague Dawley, rat, plasma, oral, 180 mg/kg, PO 180.0 mg/kg versus IV 18.0 mg/kg, read-out: F (%), absolute (oral) bioavailability",~1.6%
same,Cmax,"[5]; male, Sprague-Dawley, rat, plasma, IV 18.0 mg/kg, n = 6, mean ± SD",2310 ± 1000 ng/mL
same,Solubility in water,Water solubility,poorly soluble in water; also recorded: weak water solubility
C=C(C(N)=O)C1CCC(C)C2CC(=O)C(C)=C2C1 (stereo not drawn) [M1],Detected in rat feces (F),[6],√
same,Detected in rat urine (U),[6],√
C=C(C(=O)N(C)C)C1CCC(C)C2CC(=O)C(C)=C2C1 (stereo not drawn) [M4],Detected in rat feces (F),[6],√
same,Detected in rat urine (U),[6],×
C=C(C(=O)NCc1cc(-c2ccc(F)cc2)no1)C1CC[C@H](C(=O)O)C2CC(=O)C(C)=C2C1 (stereo partly drawn) [M5],Detected in rat feces (F),[6],×
same,Detected in rat urine (U),[6],√
C=C(C(=O)NCC1=CC(c2ccc(F)cc2)NO1)C1CCC(C)C2CC(=O)C(C)=C2C1 (stereo not drawn) [M8],Detected in rat feces (F),[6],√
same,Detected in rat urine (U),[6],×
"C=C(C(=O)O)[C@H]1CC[C@H](C)[C@@H]2CC(=O)C(C)=C2C1 [rupestonic acid, reference compound]",IC50,influenza virus B [2]; read-out: IC50 for virus B,116000 nM
